Source: ChEMBL document CHEMBL2321873, “1-(4-Phenylpiperazin-1-yl)-2-(1H-pyrazol-1-yl)ethanones as novel CCR1 antagonists” (Bioorg Med Chem Lett, 2013)
The source made the active and inactive calls. The calls are words filed in the database; no cut-off is given here.

Experiments:
[1] = target: C-X-C chemokine receptor type 4 (Homo sapiens) (UniProt P61073); test: Antagonist activity at CXCR4 (unknown origin) assessed as inhibition of chemotaxis at 10 uM
[2] = target: C-C chemokine receptor type 5 (Homo sapiens) (UniProt P51681); test: Binding affinity to CCR5 (unknown origin) at 10 uM by radioligand displacement assay
[3] = Oral bioavailability in Beagle dog at 5 mg/kg; format: ADME, organism-based, Canis lupus familiaris; settings: in vivo

Sequence of C-C chemokine receptor type 5 (Homo sapiens) (P51681 whole entry, looked up): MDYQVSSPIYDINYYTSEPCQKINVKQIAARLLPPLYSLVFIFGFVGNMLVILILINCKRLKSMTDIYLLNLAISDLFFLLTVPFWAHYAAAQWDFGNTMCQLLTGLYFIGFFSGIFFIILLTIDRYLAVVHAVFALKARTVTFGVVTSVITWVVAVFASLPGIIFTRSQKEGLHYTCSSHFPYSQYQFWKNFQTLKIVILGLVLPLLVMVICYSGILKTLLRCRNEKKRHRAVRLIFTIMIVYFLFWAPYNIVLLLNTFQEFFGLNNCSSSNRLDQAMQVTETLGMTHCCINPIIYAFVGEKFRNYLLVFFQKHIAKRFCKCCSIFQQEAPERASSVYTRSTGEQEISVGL
Sequence of C-X-C chemokine receptor type 4 (Homo sapiens) (P61073 whole entry): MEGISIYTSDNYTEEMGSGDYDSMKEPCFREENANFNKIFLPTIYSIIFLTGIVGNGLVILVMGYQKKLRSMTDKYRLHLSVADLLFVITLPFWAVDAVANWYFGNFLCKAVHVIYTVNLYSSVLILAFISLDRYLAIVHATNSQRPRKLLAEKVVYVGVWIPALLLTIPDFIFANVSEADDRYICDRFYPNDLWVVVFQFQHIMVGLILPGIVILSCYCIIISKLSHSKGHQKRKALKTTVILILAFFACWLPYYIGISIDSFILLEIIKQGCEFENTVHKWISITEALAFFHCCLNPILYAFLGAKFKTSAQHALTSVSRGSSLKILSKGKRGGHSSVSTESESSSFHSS

COc1cc(N2CCN(C(=O)Cn3nc(C(F)(F)F)c(Cl)c3C)CC2)ccc1Cl
inhibition [1]: inactive | Activity [2]: inactive | bioavailability [3]: 20%
